Reference: patent US20200268832A1, “COMPOSITIONS FOR DELIVERY TO AND TREATMENT OF ATHEROSCLEROTIC PLAQUES” (Sanford Burnham Prebys Medical Discovery Institute, priority 2015, published 2020)
“Also recorded” adds a separate entry of the source. Bridges are numbered along the chain shown (N, C = ends). Where no end group is shown, it is not given here. FAM = 5(6)-carboxyfluorescein; Ahx = NCCCCCC(=O)O

Legend:
[1] = target: T1, b1b2 domain of NRP-1 (Homo sapiens, UniProt O14786); assay: Fluorescence polarization displacement of FAM-RPARPAR from NRP-1; assay type: binding; details: for effect on RPARPAR peptide binding to NRP-1: specificity assay, up to 100 μM
T1 sequence (O14786 273-586 limits assumed): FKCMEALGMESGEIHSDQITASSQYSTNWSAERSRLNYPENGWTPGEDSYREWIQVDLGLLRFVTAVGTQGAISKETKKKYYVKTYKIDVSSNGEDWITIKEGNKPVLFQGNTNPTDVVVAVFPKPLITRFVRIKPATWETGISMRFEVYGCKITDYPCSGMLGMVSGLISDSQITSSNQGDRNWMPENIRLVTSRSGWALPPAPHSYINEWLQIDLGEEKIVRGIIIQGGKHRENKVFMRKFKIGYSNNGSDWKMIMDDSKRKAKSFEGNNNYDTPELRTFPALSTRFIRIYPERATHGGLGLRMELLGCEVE
Experimental: Results of the high-throughput screen were confirmed in dose response tests. 8.25 μM to 100 μM dilutions of the compounds that displaced FAM-peptide from p32 were used in competition with FAM-peptide as described in previous section. Specificity of the hit compounds was verified by examining their binding to a different protein, b1b2 domain of NRP-1 (Vander Kooi et al., Proc. Natl. Acad. Sci. U.S.A., 10.1073/pnas.0700043104). Experimental method for NRP-1 b1b2 was developed and validated similarly to p32, using FAM-RPARPAR peptide as a known peptide ligand for NRP-1. The displacement of FAM-RPARPAR from NRP-1 protein by the hit compounds was studied in 384-well format, as described above.

[2] = target: T2, p32 protein (Homo sapiens, UniProt Q07021); assay: Fluorescence polarization assay: displacement of FAM-TT1 from p32 (HTS, dose response, unlabeled peptide competition); assay type: binding; details: for dose-dependent inhibition of FAM-TT1 binding to p32: 8.25 μM to 100 μM; for inhibition at 25 µM: high-throughput screen hits, inhibition of TT1-p32 interaction, library compounds 25 μM (Table 1), b410 says 100 μM; for inhibition at 100 µM: highest concentration used, read-out: inhibition of FAM-TT1 binding to p32 in FP assay
T2 construct: 6xHis; host or cells: Rosetta-gami-2 cells (Novagen); an E. coli strain by own knowledge
T2 sequence (Q07021 74-282): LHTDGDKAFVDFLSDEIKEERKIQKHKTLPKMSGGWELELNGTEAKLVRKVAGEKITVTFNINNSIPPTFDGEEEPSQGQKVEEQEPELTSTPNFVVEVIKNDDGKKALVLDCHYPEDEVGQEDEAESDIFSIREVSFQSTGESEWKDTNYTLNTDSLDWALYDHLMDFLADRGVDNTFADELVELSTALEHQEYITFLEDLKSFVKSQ
Experimental: Fluorescence polarization (FP)-based assay was used for solution-based screening of compound libraries for p32 binding compounds. […] In FP assay, peptide conjugated with a fluorescent label (fluorescein-AM, FAM) is excited with polarized light. […] 6×-His-Tagged p^32 was expressed in Rosetta-gami-2 cells (Novagen). The protein was purified by IMAC using HIS-select resin (Sigma) with an imidizole gradient from 20-300 mM and eluted fractions were analyzed on analytical SDS-PAGE. […] Fluorescence polarization is given as milli-polarization (mP) value, which is obtained from equation (1):
mP=1000*(S−P)/(S+P), (Eq. 1)
(§1) The assay was initially set up in 20 μl well volume in 384 well plate (Corning Life Sciences), and measurements were carried out using PheraStar FS plate reader (BMG LABTECH, Ortenberg, Germany) in quadruplicate. Peptide and protein stock solutions were diluted to desired concentration with assay buffer (50 mM BIS-TRIS pH 7.4, 0.05% Tween20, 1 mM DTT). FAM-labeled peptides were protected from light during the experiment to avoid photobleaching. Optimal concentration of fluorescein (FAM) labeled-peptides for the assay was determined by measuring the limit of detection (LOD), signal-to-background ratio (S/B), and stability of mP value over series of peptide concentrations. In the binding assay, the concentration of FAM-peptide was kept constant, and the FP was measured over the range of target protein concentrations. The peptide dissociation constant (KD) was obtained by fitting the binding curve into Michaelis-Menten kinetics in GraphPad Prism-software (GraphPad Software, Inc., CA, USA).
FAM-TT-1 and p32 solutions are prepared just before experiment, and stored on ice during the screen; the peptide is shielded from light. • 1. […] Dispense 1.5 μL of assay buffer (50 mM BIS-TRIS pH 7.4, 0.05% Tween 20, 1 mM DTT) into columns 1-4 • 3. […] Dispense 37.5 nL of compounds (2 mM) into columns 5-44 • 5. Spin plate • 6. Incubate 20 min • 7. Dispense 1.5 μL FAM-TT-1 peptide (20 nM) into all columns • 8. Shake plate and spin plate • 9. Incubate 25 min • 10. Read plate on PheraStar FS
Chemical library of ˜50,000 compounds from ChemBridge (San Diego, Calif.) was screened in High-Throughput Screening Facility at Conrad Prebys Center for Chemical Genomics (Sanford-Burnham Medical Research Institute, La Jolla, Calif.). […] Peptide and protein were diluted immediately prior to screening, kept on ice during screening, and FAM-peptide was protected from light throughout the experiment. […]

[3] = target: T2, p32 protein; assay: NMR 1D 1H-aliph spectra of p32 with compounds; assay type: binding; details: 5 μM p32; compounds 100 and 500 μM; TT1 70 μM
Experimental: FIGS. 3A and 3B are graphs showing NMR based evaluation of binding of compounds 4014008 and 7933989 to P32 protein. The ID ^1H-aliph spectra of 5 μM P32 in the absence (bottom) and presence of compounds #4014008 (A) and #7933989 (B) at 100 μM (second from bottom) and 500 μM (second from top) were collected. As a control, the spectrum of p32 in the presence of the known peptide binder, TT1 at 70 μM, was also collected (top).
All the NMR experiments were carried out on a Bruker Avance 700 spectrometer equipped with a TCI cryoprobe at T=293 K. For structure determinations, the peptide concentration was 100 μM in the NMR buffer in presence of 150 μM of ZnCl2. One-dimensional (1D) 1H spectra were acquired with a spectral width of 8417.51 Hz, relaxation delay 1.0 s, 8 k data points for acquisition and 16 k for transformation.

[4] = target: T2, p32 protein; assay: TT1 phage binding inhibition assay (ELISA-type); details: 100 μM compound
Experimental: The binding of individual phage to p32 was verified using ELISA-type of phage binding assay. 96-well plates (Corning Life Sciences, Tewksbury, Mass., USA) were coated with 100 μL of 5 μg/mL p32 in PBS at 4° C. overnight, washed 3 times with 200 μL of PBST (PBS+0.05% Tween-20), blocked with 200 μL of 0.5% bovine serum albumin (BSA) in PBST for 1 h at 37° C., and washed 3 times with PBST. Phages (1.11*10^8 pfu in 100 μL PBST) were added to p32-coated/BSA-blocked wells, the plate was incubated at 4° C. overnight, and washed 3 times with PBST. Subsequently, the plates were incubated with 100 μL in-house prepared polyclonal rabbit anti-T7 antibody diluted 1:1000 in PBST for 1 h at 4° C., and washed 3 times with washing buffer. Horseradish peroxidase (HRP)-labeled anti-rabbit IgG (Sigma-Aldrich) was diluted 1:1000 in PBS, and 100 μL was added to the wells, followed by 1 h incubation at 4° C. and washing 3 times. Next, 100 μL of OPD silver and gold substrate (Sigma-Aldrich) was added to the wells and incubated at room temperature until visible color was observed (<30 min). The reaction was stopped by adding 50 μL of 1M H2SO4, and the plate was read at 492 nm (Varioskan Flash, Thermo Scientific, Waltham, Mass., USA).
The ability to inhibit TT1-phage binding to p32 protein was used as a secondary assay to verify the hit compounds. The competition assay was based on the phage binding assay described above with minor modifications. ELISA plates were coated with 2.5 μg/mL p32, incubated with phages (1.11*10^8 pfu in 100 μL PBST) and 100 μM hit compounds at 4° C. overnight, and followed by antibody incubation and chromogenic reaction. Negative controls included DMSO at concentration it was used to dissolve the hit compounds.

[5] = in vivo
Description: Toxicity of peptide, compounds, and compositions can be assessed for toxicity. Useful factors for assessing toxicity include body weight, serum cholesterol and triglyceride, and weight of liver and spleen. Liver and kidney functions can be monitored by blood tests.

[6] = system: atherosclerotic plaques; assay: Plaque homing of FAM-labeled peptides in ApoE null mice on high-fat diet; details: 100 μg FAM-labeled peptide IV, one hour
Description: One hour later, the mice can be perfused through the heart under anesthesia, and tissues were collected. Accumulation of FAM-labeled peptides can be visualized with UV excitation. Atherosclerotic aortas can be sectioned at the aortic root level, and examined by confocal microscopy. […] CD31 staining can be used to visualize the endothelium over the plaque.
One hour later, the mice were perfused through the heart under anesthesia, and tissues were collected. Accumulation of FAM-labeled peptides was visualized with UV excitation. Atherosclerotic aortas were sectioned at the aortic root level, and examined by confocal microscopy. […] CD31 staining was used to visualize the endothelium over the plaque.

[7] = target: T3, b1b2 domain of neuropilin-1 (NRP-1) (Homo sapiens, UniProt O14786); assay: Fluorescence polarization binding of FAM-peptide to NRP-1
T3 sequence (O14786 273-586 limits assumed): T1 sequence (O14786 273-586 limits assumed)
Experimental: FIG. 8 is a graph showing specificity of TT1 binding. Specificity of TT1 was further evaluated by measuring the binding of FAM-TT1 to recombinant non-target protein, b1b2 domain of neuropilin-1 (NRP-1). The binding was studied by fluorescence polarization. […] Each data point presents average±S.D., n=4-6.
as §1, with “USA). […]” for “USA).”

| Molecule | inhibition at 25 µM [2] [%] | effect on RPARPAR peptide binding to NRP-1 [1] | inhibition at 100 µM [2] [%] | inhibition at 100 µM [4] [%] | also measured |
| --- | --- | --- | --- | --- | --- |
| Cc1c(O)ccc2c(C(F)(F)F)cc(=O)oc12 [Compound 6367577, 7-hydroxy-8-methyl-4-(trifluoromethyl)-2H-chromen-2-one] | 39.5 | – | – | – | FP level in the presence of compound ([1]; highest concentration): negative value; dose-dependent inhibition of FAM-TT1 binding to p32 [2]: less effective than the other active compounds |
| CC1(C)CN=C(NCCNC2=NCC(C)(C)S2)S1 [Compound 7933989] | 40.5 | no effect | 80 | 75 | perturbations in 1D 1H-aliphatic spectra of p32 [3]: caused similar perturbations; also recorded: shift in the peak at around −0.3 ppm |
| Cc1nc2nc3c(cn2n1)C(=O)CC(c1cccs1)C3 (stereo not drawn) [Compound 9132086, 2-methyl-6-(2-thienyl)-6,7-dihydro[1,2,4]triazolo [5,1-b]quinazolin-8(5H)-one] | 20.7 | no effect | 65 to 75 | 20 | – |
| Nc1nccc(N2CCC(C3CCN(Cc4cccnc4)CC3)C2)n1 (stereo not drawn) [Compound 54778828, 4-{3-[1-(3-pyridinylmethyl)-4-piperidinyl]-1-pyrrolidinyl}-2-pyrimidinami] | 29.4 | – | – | – | dose-dependent inhibition of FAM-TT1 binding to p32 [2]: only marginally active |
| C[C@@H](O)[C@@H]1NC(=O)[C@H](CCCNC(=N)N)NC(=O)[C@H](CCCCN)NC(=O)[C@H](CC(N)=O)NC(=O)CNC(=O)[C@@H](N)CSSC[C@@H](C(=O)O)NC(=O)CNC(=O)[C@H](CCCNC(=N)N)NC1=O [LyP-1, CGNKRTRGC] | – | – | – | – | toxicity (body weight, serum cholesterol and triglyceride, weight of liver and spleen, liver and kidney functions) [5]: no differences between LyP-1 and control groups |
| FAM-LyP-1: FAM-labeled LyP-1 peptide (CGNKRTRGC; disulfide 1-9 (inferred); not fully specified (N-terminus)) | – | – | – | – | homing to atherosclerotic plaques [6]: signal was seen inside plaques |
| FAM-TT1: FAM-labeled TT1 peptide, 5(6)-carboxyfluorescein with 6-aminohexanoic acid spacer ({FAM-Ahx}-CKRGARSTC; disulfide 1-9 (inferred)) | – | – | – | – | homing to atherosclerotic plaques [6]: signal was seen inside plaques; binding to b1b2 domain of NRP-1 [7]: did not show binding |
| RPARPAR [reference compound] | – | – | – | – | inhibition (dislocation) of FAM-TT1 binding to p32 by unlabeled peptide ([2]; unlabeled peptides titrated up to 100 μM): not and did not dislocate FAM-TT1; binding to b1b2 domain of NRP-1 [7]: showed strong affinity |

Continued, in another order:

| inhibition at 25 µM [2] [%] | effect on RPARPAR peptide binding to NRP-1 [1] | inhibition at 100 µM [2] [%] | inhibition at 100 µM [4] [%] | Molecule | also measured |
| --- | --- | --- | --- | --- | --- |
| 30.8 | no effect | 65 to 75 | 20 | Cc1ccc(-c2cnc(N)c(N3CCC(O)C3)n2)c(-n2cccn2)c1 (stereo not drawn) [Compound 88361068, 1-{3-amino-6-[4-methyl-2-(1H-pyrazol-1-yl)phenyl]pryazin-2-yl}pyrrolidin-3-] | – |
| 22.5 | – | 65 to 75 | 20 | CN1CCc2onc(-c3ccc(F)c(F)c3)c2C1 [Compound 91984046] | – |
